System: human corpus cavernosum tissue
Conditions: doses of 10 μM and 30 μM; compared with equimolar dose of dipyridamole; tissue contracted with phenylephrine 7×10^−7 M; 0% = phenylephrine contraction, −100% = tone after papaverine 10^−4 M; FIG. 40
Description: The tissue was maintained in a chilled Krebs-bicarbonate solution prior to assay. The tissue was cut into strips of 0.3×0.3×1 cm and suspended in organ chambers for isometric tension measurement. Tissues were incrementally stretched until optimal isometric tension for contraction was obtained. […] At the end of the experiment papaverine (10^−4 M) is added to obtain maximal relaxation. […] Data are expressed as the percent loss in tone from the phenylephrine-induced contraction (0% =phenylephrine contraction; −100%=tone after the administration of papaverine).

CC(C)(CC(=O)OCCN(CCOC(=O)CC(C)(C)SN=O)c1nc(N2CCCCC2)c2nc(N(CCOC(=O)CC(C)(C)SN=O)CCOC(=O)CC(C)(C)SN=O)nc(N3CCCCC3)c2n1)SN=O [Example 1, 2.6-bis(diethyl(3-methyl-3(nitrosothiol)butyric acid ester)amino)-4.8-dipipendinopyrimido-[5,4d]-pyrimidine]
relaxation of the phenylephrine-induced contraction (percent loss in tone from the phenylephrine-induced contraction): more efficacious

Reference: patent US20030158184A1, “Nitrosated and nitrosylated phosphodiesterase inhibitor compounds, compositions and their uses” (priority 2001, published 2003)
